According to US10118947B2, “Modulation of structured polypeptide specificity” (BICYCLE THERAPEUTICS LIMITED, priority 2013, dated 2018):
Where two headings read alike, the source gives them in different places. Numbered stars: 1 amine (or outer) side, 2 acyl side, 3 side chain; on linkers, the order of the positions; unused ones are H or OH. Bridge positions count the residues as written; N and C are the ends. Square brackets hold non-standard residues; d marks the D form. Peptide text beside a SMILES is read from it. X2 = O=C([C@@H]1Cc2ccccc2N1[*:1])[*:2]; TBMB = c1c(C[*:1])cc(C[*:3])cc1C[*:2]; 3Pal = N[C@@H](Cc1cccnc1)C(=O)O; Agp = N=C(N)NC[C@H](N)C(=O)O; Tle = CC(C)(C)[C@H](N)C(=O)O; Pip = O=C(O)[C@@H]1CCCCN1; Dap = NC[C@H](N)C(=O)O

Key:
[1] = Plasma stability profiling Method #1 (MALDI-TOF, 35% plasma), rat plasma; type: in vitro ADME; conditions: method #1
Protocol: A rapid plasma stability profiling assay was developed that employed mass spectrometric detection (MALDI-TOF, Voyager DE, Applied Biosystems) of the parent mass, until the time when the parent peptide mass was no longer observable. Specifically, 200 uM of peptide was incubated in the presence of 35% rat or human plasma (Sera labs, using citrate as anticoagulant) at 37 deg C., which was supplemented with 1×PBS (derived from a 10×PBS Stock, Sigma). At various time points (i.e. t=0, 3, 24 hrs, henceafter daily up to 10 days), 2 uL of sample was added to 18 uL of 30 mM ammonium bicarbonate in a 1:1 mixture of acetonitrile:H2O. Samples were frozen at −80 deg C. until the time of analysis. For mass spectrometric analysis that determines the approximate detection window of the peptide, the acetonitrile:H2O-diluted sample of a given time point was spotted directly (0.7 uL) onto the MALDI plate. Matrix (alpha-cyanocinnamic acid, Sigma, prepared as a saturated solution in 1:1 acetonitrile:water containing 0.1% trifluoroacetic acid) was layered over the sample (1 uL). At a similar laser intensity setting on the MALDI TOF, the time could then be determined until parent peptide was no longer detectable. It should be noted that this is a qualitative assay serves to detect relative changes in plasma stability.

[2] = target: T1, human plasma Kallikrein (Homo sapiens, UniProt P03952); experiment: Functional enzyme inhibition assay with fluorogenic substrate Z-PheArg-AMC, human plasma Kallikrein; type: biochemical; conditions: for F (Kivar/KiWT): ratio of Ki to wild type
T1 construct: purchased Stratech, UK
T1 sequence (P03952 20-638): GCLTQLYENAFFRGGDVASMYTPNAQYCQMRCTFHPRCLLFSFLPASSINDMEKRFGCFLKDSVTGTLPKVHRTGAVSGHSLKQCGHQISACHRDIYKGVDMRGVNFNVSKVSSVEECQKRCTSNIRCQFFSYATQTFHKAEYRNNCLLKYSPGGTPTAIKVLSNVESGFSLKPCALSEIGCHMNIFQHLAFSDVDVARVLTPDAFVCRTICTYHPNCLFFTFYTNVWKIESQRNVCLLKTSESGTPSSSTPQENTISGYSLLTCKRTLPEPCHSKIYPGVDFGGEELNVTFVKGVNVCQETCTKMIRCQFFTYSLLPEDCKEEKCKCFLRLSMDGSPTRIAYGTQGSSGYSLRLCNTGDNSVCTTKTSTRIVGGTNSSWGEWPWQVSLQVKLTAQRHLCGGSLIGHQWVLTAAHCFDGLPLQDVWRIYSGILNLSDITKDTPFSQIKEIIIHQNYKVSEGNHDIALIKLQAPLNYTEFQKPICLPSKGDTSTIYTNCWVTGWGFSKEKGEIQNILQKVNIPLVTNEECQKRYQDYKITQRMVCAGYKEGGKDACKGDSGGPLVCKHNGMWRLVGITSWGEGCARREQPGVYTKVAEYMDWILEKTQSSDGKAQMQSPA
Protocol: Functional enzyme assays were conducted in 10 mM Tris HCl, 150 mM NaCl, 10 mM MgCl2, 1 mM CaCl2) and 1 mg/mL BSA (all Sigma UK) pH7.4 at 25° C. in solid black 96 well plates. Briefly 26.5 pM human plasma Kallikrein (purchased from Stratech, UK) or 500 pM rat plasma Kallikrein (expressed and purified in house) were incubated in the absence or presence of increasing concentrations of test peptide for 15 minutes before addition of the fluorogenic substrate Z-PheArg-AMC (Enzo Lifesciences UK) to a final assay concentration of 100 μM in 4% DMSO. Release of AMC was measured using a Pherastar FS (BMG Labtech), excitation 360 nm, emission 460 nm. The rate of the linear phase of the reaction, typically 5 to 45 minutes, was calculated in MARS data analysis software (BMG labtech). The rate was then used to calculate the IC50 and Ki in Prism (GraphPad). A four parameter inhibition non-linear regression equation was used to calculate the IC50.
Peptides were dissolved as the TFA-salts in their powder form, and stock solutions were usually prepared in water. All solutions were centrifuged and filtered ([…] syringe filters) prior absorption measurement at 280 nm. […] For peptides containing non-natural amino acids with suspected chromophoric properties (i.e. NorHar, 4PhenylPro, 3Pal, 4Pal, Tic, 4GuanPhe, 4,4-BPAI, 3,3-DPA, 1NAI, 2NAI, 4BenzylPro, Ind) concentrations were determined by weighing the powder and dissolving the peptide in a defined quantity of water.

[3] = Table 3c, D-Alanine scan in Loop2, read-out: Ki
[4] = Table 24b, residue 7 modifications, read-out: Ki
[5] = Table 24c, residue 8 modifications, read-out: Ki

CC(=O)N[C@H]1CSCc2cc3cc(c2)CSC[C@H](NC(=O)[C@H](CCCNC(=N)N)NC(=O)[C@H](C)NC(=O)[C@@H]2CCCCN2C(=O)[C@H](Cc2c[nH]c4ccccc24)NC(=O)[C@H](CO)NC1=O)C(=O)N[C@@H](CC(C)C)C(=O)N[C@@H](Cc1c[nH]cn1)C(=O)N[C@@H](CCC(N)=O)C(=O)N[C@@H](CC(=O)O)C(=O)N[C@@H](CC(C)C)C(=O)N[C@H](C(N)=O)CSC3 [Ac-(06-34-18) Pip3] (Ac-CSW[Pip]ARCLHQDLC-NH2; linker 1-7-13 via TBMB)
Observable in rat plasma, for days ([1]; Table 13): 2 days

CC(=O)N[C@H]1CSCc2cc3cc(c2)CSC[C@H](NC(=O)[C@H](CCCNC(=N)N)NC(=O)[C@H](C)NC(=O)[C@@H]2Cc4ccccc4N2C(=O)[C@H](Cc2c[nH]c4ccccc24)NC(=O)[C@H](CO)NC1=O)C(=O)N[C@@H](CC(C)C)C(=O)N[C@@H](Cc1c[nH]cn1)C(=O)N[C@@H](CCC(N)=O)C(=O)N[C@@H](CC(=O)O)C(=O)N[C@@H](CC(C)C)C(=O)N[C@H](C(N)=O)CSC3 [Ac-(06-34-18) Ind3] (Ac-CSW[X2]ARCLHQDLC-NH2; linker 1-7-13 via TBMB)
Observable in rat plasma, for days ([1]; Table 13): 2 days

CC(=O)N[C@H]1CSCc2cc3cc(c2)CSC[C@H](NC(=O)[C@H](CCCNC(=N)N)NC(=O)[C@H](Cc2ccc(O)cc2)NC(=O)[C@@H]2CCCN2C(=O)[C@H](Cc2c[nH]c4ccccc24)NC(=O)[C@H](CO)NC1=O)C(=O)N[C@@H](CC(C)C)C(=O)N[C@@H](Cc1c[nH]cn1)C(=O)N[C@@H](CCC(N)=O)C(=O)N[C@@H](CC(=O)O)C(=O)N[C@@H](CC(C)C)C(=O)N[C@H](C(N)=O)CSC3 [Ac-(06-34-18) WPYR] (Ac-CSWPYRCLHQDLC-NH2; linker 1-7-13 via TBMB)
Observable in rat plasma, for days ([1]; Table 21): 2 days

CC(=O)N[C@H]1CSCc2cc3cc(c2)CSC[C@H](NC(=O)[C@H](CCCNC(=N)N)NC(=O)[C@H](Cc2ccc(O)cc2)NC(=O)[C@@H]2CCCN2C(=O)[C@H](Cc2ccccc2)NC(=O)[C@H](CO)NC1=O)C(=O)N[C@@H](CC(C)C)C(=O)N[C@@H](Cc1c[nH]cn1)C(=O)N[C@@H](CCC(N)=O)C(=O)N[C@@H](CC(=O)O)C(=O)N[C@H](C)C(=O)N[C@H](C(N)=O)CSC3 [Ac-(06-34-18) Phe2 Tyr4 D-Ala10] (Ac-CSFPYRCLHQD[dA]C-NH2; linker 1-7-13 via TBMB)
Ki [2, 3]: 572 nM | F (Kivar/KiWT) ([2]; Table 3c): 1362

CC(=O)N[C@H]1CSCc2cc3cc(c2)CSC[C@H](NC(=O)[C@H](CCCNC(=N)N)NC(=O)[C@H](Cc2ccc(O)cc2)NC(=O)[C@@H]2CCCN2C(=O)[C@H](Cc2ccccc2)NC(=O)[C@H](CO)NC1=O)C(=O)N[C@@H](CC(C)C)C(=O)N[C@@H]([C@@H](C)O)C(=O)N[C@@H]([C@@H](C)O)C(=O)N[C@@H](CCC(=O)O)C(=O)N[C@@H](CC(C)C)C(=O)N[C@H](C(N)=O)CSC3 [Ac-(06-34-18) Phe2 Tyr4 Thr7 Thr8 Glu9] (Ac-CSFPYRCLTTELC-NH2; linker 1-7-13 via TBMB)
F (Kivar/KiWT) ([2]; Table 24c): 193

CC(=O)N[C@H]1CSCc2cc3cc(c2)CSC[C@H](NC(=O)[C@H](CCCNC(=N)N)NC(=O)[C@H](Cc2ccc(O)cc2)NC(=O)[C@@H]2CCCN2C(=O)[C@H](Cc2ccccc2)NC(=O)[C@H](CO)NC1=O)C(=O)N[C@@H](CC(C)C)C(=O)N[C@@H](CNC(=N)N)C(=O)N[C@@H](CCC(N)=O)C(=O)N[C@@H](CC(=O)O)C(=O)N[C@@H](CC(C)C)C(=O)N[C@H](C(N)=O)CSC3 [Ac-(06-34-18) Phe2 Tyr4 Agp7] (Ac-CSFPYRCL[Agp]QDLC-NH2; linker 1-7-13 via TBMB)
Ki [2, 4]: 672 nM | F (Kivar/KiWT) ([2]; Table 24b): 1599

CC(=O)N[C@H]1CSCc2cc3cc(c2)CSC[C@H](NC(=O)[C@H](CCCNC(=N)N)NC(=O)[C@H](C)NC(=O)[C@@H]2CCCN2C(=O)[C@H](Cc2c[nH]c4ccccc24)NC(=O)[C@H](CO)NC1=O)C(=O)N[C@@H](C(C)(C)C)C(=O)N[C@@H](Cc1c[nH]cn1)C(=O)N[C@@H](CCC(N)=O)C(=O)N[C@@H](CC(=O)O)C(=O)N[C@@H](CC(C)C)C(=O)N[C@H](C(N)=O)CSC3 [Ac-(06-34-18) tBuGly6] (Ac-CSWPARC[Tle]HQDLC-NH2; linker 1-7-13 via TBMB)
Ki ([2]; Table 24a, residue 6 modification in the context of Ac-(06-34-18), read-out: Ki (nM) Ac-(06-34-18)): 0.49 nM

CC(=O)N[C@H]1CSCc2cc3cc(c2)CSC[C@H](NC(=O)[C@H](CCCNC(=N)N)NC(=O)[C@H](Cc2ccc(O)cc2)NC(=O)[C@@H]2CCCN2C(=O)[C@H](Cc2ccccc2)NC(=O)[C@H](CO)NC1=O)C(=O)N[C@@H](CC(C)C)C(=O)N[C@@H](Cc1cccnc1)C(=O)N[C@@H](CCC(N)=O)C(=O)N[C@@H](CC(=O)O)C(=O)N[C@@H](CC(C)C)C(=O)N[C@H](C(N)=O)CSC3 [Ac-(06-34-18) Phe2 Tyr4 3Pal7] (Ac-CSFPYRCL[3Pal]QDLC-NH2; linker 1-7-13 via TBMB)
Ki [2, 4]: 130 nM | F (Kivar/KiWT) ([2]; Table 24b): 308

CC(=O)N[C@H]1CSCc2cc3cc(c2)CSC[C@H](NC(=O)[C@H](CCCNC(=N)N)NC(=O)[C@H](Cc2ccc(O)cc2)NC(=O)[C@@H]2CCCN2C(=O)[C@H](Cc2ccccc2)NC(=O)[C@H](CO)NC1=O)C(=O)N[C@@H](CC(C)C)C(=O)N[C@@H](Cc1c[nH]cn1)C(=O)N[C@@H](CN)C(=O)N[C@@H](CC(=O)O)C(=O)N[C@@H](CC(C)C)C(=O)N[C@H](C(N)=O)CSC3 [Ac-(06-34-18) Phe2 Tyr4 Dap8] (Ac-CSFPYRCLH[Dap]DLC-NH2; linker 1-7-13 via TBMB)
Ki [2, 5]: 5.49 nM | F (Kivar/KiWT) ([2]; Table 24c): 13

CC(=O)N[C@H]1CSCc2cc3cc(c2)CSC[C@H](NC(=O)[C@H](CCCNC(=N)N)NC(=O)[C@H](Cc2ccc(O)cc2)NC(=O)[C@@H]2CCCN2C(=O)[C@H](Cc2ccccc2)NC(=O)[C@H](CO)NC1=O)C(=O)N[C@@H](CC(C)C)C(=O)N[C@@H](Cc1c[nH]cn1)C(=O)N[C@@H]([C@@H](C)O)C(=O)N[C@@H](CC(=O)O)C(=O)N[C@@H](CC(C)C)C(=O)N[C@H](C(N)=O)CSC3 [Ac-(06-34-18) Phe2 Tyr4 Thr8] (Ac-CSFPYRCLHTDLC-NH2; linker 1-7-13 via TBMB)
Ki [2, 5]: 4.23 nM | F (Kivar/KiWT) ([2]; Table 24c): 10

CC(=O)N[C@H]1CSCc2cc3cc(c2)CSC[C@H](NC(=O)[C@H](CCCNC(=N)N(C)C)NC(=O)[C@H](C)NC(=O)[C@@H]2CCCN2C(=O)[C@H](Cc2c[nH]c4ccccc24)NC(=O)[C@H](CO)NC1=O)C(=O)N[C@@H](CC(C)C)C(=O)N[C@@H](Cc1c[nH]cn1)C(=O)N[C@@H](CCC(N)=O)C(=O)N[C@@H](CC(=O)O)C(=O)N[C@@H](CC(C)C)C(=O)N[C@H](C(N)=O)CSC3 [Ac-(06-34-18) NDMA5]
Ki ([2]; Table 11, read-out: Ki (nM) (human kallikrein)): 510 nM

CC(=O)N[C@H]1CSCc2cc3cc(c2)CSC[C@H](NC(=O)[C@H](CCCNC(=N)N)NC(=O)[C@H](Cc2ccc(O)cc2)NC(=O)[C@@H]2CCCN2C(=O)[C@H](Cc2ccccc2)NC(=O)[C@H](CO)NC1=O)C(=O)N[C@@H](Cc1ccccc1)C(=O)N[C@@H](Cc1c[nH]cn1)C(=O)N[C@@H](CCC(N)=O)C(=O)N[C@@H](CC(=O)O)C(=O)N[C@@H](CC(C)C)C(=O)N[C@H](C(N)=O)CSC3 [Ac-(06-34-18) Phe2 Tyr4 Phe6] (Ac-CSFPYRCFHQDLC-NH2; linker 1-7-13 via TBMB)
Ki ([2]; Table 24a, residue 6 modification in the context of Ac-(06-34-18) Phe2 Tyr4, read-out: Ki (nM) Ac-(06-34-18) Phe2 Tyr4): 14.9 nM

CC(=O)N[C@H]1CSCc2cc3cc(c2)CSC[C@H](NC(=O)[C@H](CCCNC(=N)N)NC(=O)[C@H](Cc2ccc(O)cc2)NC(=O)[C@@H]2CCCN2C(=O)[C@H](Cc2ccccc2)NC(=O)[C@H](CO)NC1=O)C(=O)N[C@H](C)C(=O)N[C@@H](Cc1c[nH]cn1)C(=O)N[C@@H](CCC(N)=O)C(=O)N[C@@H](CC(=O)O)C(=O)N[C@@H](CC(C)C)C(=O)N[C@H](C(N)=O)CSC3 [Ac-(06-34-18) Phe2 Tyr4 D-Ala6] (Ac-CSFPYRC[dA]HQDLC-NH2; linker 1-7-13 via TBMB)
Ki [2, 3]: 9450 nM | F (Kivar/KiWT) ([2]; Table 3c): 22507
